# Patent US5811582A, “Dimethyl-(3-aryl-but-3-enyl)-amine compounds as pharmaceutical active ingredients” (priority 1996, dated 1998)
# Counter-ions that a name gives are not always drawn. Like-named read-outs stand apart in the source and are kept apart here.
# Test system: mice
# Test: Phenylquinone-induced writhing test on mice (analgesia)
# Format: in vivo, male NMRI mice
# Conditions: Mus musculus, read-out: ED50 (writhing test on mice)
# Method: Testing for analgesia using the writhing test on mice
# Testing for analgesic effectiveness was performed using the phenylquinone-induced writhing test on mice, modified according to I. C. Hendershot, J. Forsaith, J. Pharmacol. Exp. Ther. 125, 237-240 (1959). Male NMRI mice with a weight of 25-30 g were used for this purpose. For each dose of substance, groups of 10 animals received, 10 minutes after the intravenous administration of a compound according to the invention, 0.3 ml per mouse of an 0.02% aqueous solution of phenylquinone (phenylbenzoquinone: manufactured by Sigma, Deisenhofen; solution prepared with the addition of 5% ethanol and kept on a water bath at 45° C.) administered intraperitoneally. The animals were placed individually in observation cages. The number of pain-induced stretching movements (so-called writhing reactions=straightening of the body with stretching of the rear extremities) 5-20 minutes after the administration of phenylquinone was counted by means of a push-button counter.
# The ED50 values of the writhing reaction were calculated by means of regression analysis (evaluation program supplied by Martens EDV Service, Eckental) from the dose-dependent decrease in the writhing reactions, by comparison with groups of animals which were tested in parallel and to which no compounds according to the invention were administered.
# [1] = mice, intravenous, 10 minutes before phenylquinone (0.3 ml of 0.02% solution i.p.), writhing reactions counted 5-20 minutes after phenylquinone
SMILES,ED50 (iv) [mg/kg],ED50 [1] [mg/kg]
"COc1cccc([C@@]2(O)CCCC[C@@H]2CN(C)C)c1.Cl (racemic) [tramadol, (1RS,2RS)-2-dimethylaminomethyl-1-(3-methoxy-phenyl)-cyclohexanol hydrochloride, reference compound]",3.68,–
"Cc1cc2c(C3=CCCCC3CN(C)C)cccc2s1.Cl (racemic) [Example 24, (RS)-dimethyl-[2-(2-methyl-benzo[b]thiophen-4-yl]-cyclohex-2-enylmethyl]-amine hydrochloride]",–,1.35
CN(C)C[C@H]1CCCC=C1c1cccc(O)c1 [27 (+)-enantiomer],–,1.6
CN(C)C[C@H]1CCC=C1c1ccc(C(F)(F)F)cc1 [20 (+)-enantiomer],–,1.4
CN(C)C[C@@H]1CCCC=C1c1cccc(O)c1 [26 (-)-enantiomer],–,1.04
"C/C=C(\c1cccc(OC(=O)c2ccccc2OC(C)=O)c1)C(C)CN(C)C (racemic) [Example 4, (Z)-(RS)-2-acetoxy-benzoic acid-3-[1-2-dimethylamino-1-methyl-ethyl)-propenyl]-phenyl ester hydrochloride]",–,1.64
"CC(C)=C(c1cccc(O)c1)C(C)CN(C)C.Cl (racemic) [Example 18, (RS)-3-[1-(2-dimethylamino-1-methyl-ethyl)-2-methyl-propenyl]-phenol hydrochloride]",–,2.07
C/C=C(\c1cccc(O)c1)[C@H](C)CN(C)C [3 (+)-enantiomer],–,2.25
"CC/C=C(\c1cccc(O)c1)C(C)CN(C)C.Cl (racemic) [Example 15, (Z)-(RS)-3-[1-(2-dimethylamino-1-methyl-ethyl)-but-1-enyl]-phenol hydrochloride]",–,1.33
"C/C=C(\c1ccc2cc(O)ccc2c1)C(C)CN(C)C.Cl (racemic) [Example 12, (Z)-(RS)-6-[1-(2-dimethylamino-1-methyl-ethyl)-propenyl]-naphth-2-ol hydrochloride]",–,0.97
C[C@@H]1C=C(c2cccc(O)c2)[C@H](CN(C)C)CC1 [25 (-)-enantiomer],–,0.9
CN(C)C[C@@H]1CCC=C1c1ccc(C(F)(F)F)cc1 [20 (-)-enantiomer],–,2.12
"C/C=C(\c1cccc(O)c1)C(C)CN(C)C.Cl (racemic) [Example 2, (Z)-(RS)-3-[1-(2-dimethylamino-1-methyl-ethyl)-propenyl]-phenol hydrochloride]",–,1.37
C/C=C(\c1cccc(O)c1)[C@@H](C)CN(C)C [3 (-)-enantiomer],–,0.98
